Test results as given in US12398119B2, “Piperazine azaspiro derivatives” (PFIZER INC., priority 2018, dated 2025).
pEC50: −log10 of the molar value.

Target: T1, Human M4 mAChR (Homo sapiens, UniProt P08173)
T1 construct: host or cells: HEK293 (Sor-L9 HEK293 human/M4/GloSensor Cell Clone Number 40)
T1 sequence (P08173 1-479): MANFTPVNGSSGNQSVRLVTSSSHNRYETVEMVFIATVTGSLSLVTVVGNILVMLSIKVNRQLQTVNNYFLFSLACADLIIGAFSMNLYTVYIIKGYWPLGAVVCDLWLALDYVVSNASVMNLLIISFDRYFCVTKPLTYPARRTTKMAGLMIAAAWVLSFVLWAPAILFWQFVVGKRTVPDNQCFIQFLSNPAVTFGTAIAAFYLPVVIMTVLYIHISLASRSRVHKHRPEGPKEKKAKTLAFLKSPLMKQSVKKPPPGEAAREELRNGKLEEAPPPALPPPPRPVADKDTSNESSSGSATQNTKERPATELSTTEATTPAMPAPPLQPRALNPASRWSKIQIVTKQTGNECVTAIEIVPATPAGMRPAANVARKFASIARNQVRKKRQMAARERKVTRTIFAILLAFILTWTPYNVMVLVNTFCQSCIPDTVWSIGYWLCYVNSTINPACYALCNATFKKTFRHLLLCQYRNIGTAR
Assay: Muscarinic hM4 Agonist GloSensor cAMP Assay
Assay type: cell-based
Settings: geometric mean; for Emax: Emax: maximum asymptote of concentration response curve, relative to ACh positive control (EC100) and DMSO, read-out: % maximum effect; for pEC50: HEK293 human/M4/GloSensor cells, EC80 isoproterenol, number of determinations in parentheses, read-out: EC50
Description: Muscarinic hM4 Agonist GloSensor cAMP Assay Methods
Compounds were prepared in advance of the assay. Test compounds were solubilized in 100% dimethyl sulfoxide (DMSO, Sigma D8418) to a concentration of 30 mM. A 10-point intermediate dilution series using half log dilutions was created in 100% DMSO with a top concentration of 4 mM. The serially diluted compounds were spotted as 200 nL/well in a 384-well plate (Matrix Catalog Number 4325). The final compound concentration range in the assay was […] to 0.3 nM with a final DMSO concentration of 0.25%.
Human M4 mAChR expressing stable cell lines were generated using a parental HEK cell expressing the GloSensor construct (Promega Sor-L9 HEK293 human/M4/GloSensor Cell Clone Number 40). The cells were grown in 90% Dulbecco's Modified Eagle Medium (DMEM, Gibco 11960), 10% fetal bovine serum (FBS, Hyclone CH.30160-03), 1% Penicillin/Streptomycin (Gibco 15070-063), 500 µg/mL Geneticin (Gibco 10131-027), 200 µg/mL Hygromycin B (Invitrogen 10687-010) and 1% Glutamax (Thermo Fisher 35050061).
One day prior to assay, the cells were lifted using dissociation buffer (Gibco 13151-014) and spun in a centrifuge at 250 times gravity for 5 minutes at room temperature. Supernatant was removed and the cell pellet was resuspended in growth media to a concentration of […]. Cells were then added to white poly-d-lysine coated plates (Becton Dickinson 356661) as 40 μL per well (25,000 cells) and incubated overnight (20-24 hours) in a 37° C. humidified incubator with 5% carbon dioxide (C02).
The following day, culture media was removed from the cell plates and replaced with […] equilibration medium containing 88% CO2-independent medium (Invitrogen 18045088), 10% FBS and 2% GloSensor cAMP reagent (Promega E1291) that had been warmed to 37° C. Plates were then covered and incubated for 2 hours at room temperature while protected from light.
To the previously prepared serially diluted compound plates, 200 nL of 4 mM ACh (Sigma A2661, 10 μM final) or 200 nL of 100% DMSO (0.25% final) was added to the positive and negative control wells, respectively. Compound plates were then diluted by adding 16 μL of C02-independent media containing 10% FBS and an EC80 concentration of isoproterenol (Sigma 16504). Prior to compound testing, concentration response curves were run for isoproterenol to determine the EC80 concentration. At the end of the 2 hour equilibration, 10 µL was transferred from the compound plates to the cell plates. The cell plates were incubated an additional 7 minutes at room temperature and then read using a Multi-label EnVision plate reader (Perkin Elmer) for luminescence.
The raw data, expressed as relative light units, was analyzed using Activity Base (IDBS). The percent effect at each compound concentration was calculated based on and relative to the amount of cAMP produced by the positive and negative control wells contained on each assay plate. The positive control wells contained an EC100 concentration of ACh and the negative control wells contained only DMSO. The concentration and % effect values were fit using a four-parameter logistic dose response equation, and the concentration required for 50% effect (EC50) was determined as well as the maximum asymptote of the concentration response curve to define the efficacy.

Row | SMILES | Emax | pEC50
1 | CCOC(=O)N1CC2(CC(N3CCN(c4ncccc4-c4cnccn4)CC3)C2)C1 [Example 35, ethyl 6-{4-[3-(pyrazin-2-yl)pyridin-2-yl]piperazin-1-yl}-2-azaspiro[3.3]heptane-2-carboxylate] | 94.2% | 6.52
2 | CCOC(=O)N1CC2(CCC(N3CCN(c4ncccc4-c4sc(C)nc4C)CC3)C2)C1 (centres unmarked) [Example 36, ethyl 6-{4-[3-(2,4-dimethyl-1,3-thiazol-5-yl)pyridin-2-yl]piperazin-1-yl}-2-azaspiro[3.4]octane-2-carboxylate] | 80.6% | 8.11
3 | CCOC(=O)N1CC2(CCC(N3CCN(c4ncccc4-c4cncc(OC(F)F)c4)CC3)C2)C1 (centres unmarked) [Example 37, ethyl 6-{4-[5′-(difluoromethoxy)-3,3′-bipyridin-2-yl]piperazin-1-yl}-2-azaspiro[3.4]octane-2-carboxylate] | 24.7% | 8.21
4 | CCOC(=O)N1CC2(CCC(N3CCN(c4ncccc4-c4ccc5nccn5c4)CC3)C2)C1 (centres unmarked) [Example 39, ethyl 6-{4-[3-(imidazo[1,2-a]pyridin-6-yl)pyridin-2-yl]piperazin-1-yl}-2-azaspiro[3.4]octane-2-carboxylate] | 59.6% | 7.93
5 | CCOC(=O)N1CC2(CCC(N3CCN(c4ncccc4-c4ccc5nncn5c4)CC3)C2)C1 (centres unmarked) [Example 40, ethyl 6-{4-[3-([1,2,4]triazolo[4,3-a]pyridin-6-yl)pyridin-2-yl]piperazin-1-yl}-2-azaspiro[3.4]octane-2-carboxylate] | 81.6% | 7.92
6 | CCOC(=O)N1CC2(CC[C@@H](N3CCN(c4nccnc4N4CCOCC4)CC3)C2)C1 [Example 42, ethyl (6R)-6-{4-[3-(morpholin-4-yl)pyrazin-2-yl]piperazin-1-yl}-2-azaspiro[3.4]octane-2-carboxylate] | 92.9% | 7.91
7 | CCOC(=O)N1CC2(CCC(N3CCN(c4ncccc4-c4cccnn4)CC3)C2)C1 (centres unmarked) [Example 45, ethyl 6-{4-[3-(pyridazin-3-yl)pyridin-2-yl]piperazin-1-yl}-2-azaspiro[3.4]octane-2-carboxylate] | 35.2% | 8.09
8 | CCOC(=O)N1CC2(CC[C@@H](N3CCN(c4ncccc4-c4ccncn4)CC3)C2)C1 [Example 46, ethyl (6R)-6-{4-[3-(pyrimidin-4-yl)pyridin-2-yl]piperazin-1-yl}-2-azaspiro[3.4]octane-2-carboxylate] | 96.6% | > 8.76
9 | CCOC(=O)N1CC2(CC[C@@H](N3CCN(c4ncccc4-c4cnc(C)nc4)CC3)C2)C1 [Example 47, ethyl (6R)-6-{4-[3-(2-methylpyrimidin-5-yl)pyridin-2-yl]piperazin-1-yl}-2-azaspiro[3.4]octane-2-carboxylate] | 63.5% | 8.56
10 | CCOC(=O)N1CC2(CCC(N3CCN(c4ncccc4-c4cnc(O)cn4)CC3)C2)C1 (centres unmarked) [Example 48, ethyl 6-{4-[3-(5-hydroxypyrazin-2-yl)pyridin-2-yl]piperazin-1-yl}-2-azaspiro[3.4]octane-2-carboxylate] | 83.9% | 8.07
11 | CCOC(=O)N1CC2(CC[C@@H](N3CCN(c4ncccc4-c4nnc(C)o4)CC3)C2)C1 [Example 51, ethyl (6R)-6-{4-[3-(5-methyl-1,3,4-oxadiazol-2-yl)pyridin-2-yl]piperazin-1-yl}-2-azaspiro[3.4]octane-2-carboxylate] | 68.6% | 8.70
12 | CCOC(=O)N1CC2(CCC(N3CCN(c4ncccc4-c4ccc(C#N)cc4)CC3)C2)C1 (centres unmarked) [Example 53, ethyl 6-(4-(3-(4-cyanophenyl)pyridin-2-yl)piperazin-1-yl)-2-azaspiro[3.4]octane-2-carboxylate] | 97% | 8.76

Continued, values first:

Row | Emax | pEC50 | SMILES
13 | 92.3% | 8.88 | CCOC(=O)N1CC2(CCC(N3CCN(c4ncccc4-c4cnsn4)CC3)C2)C1 (centres unmarked) [Example 33, ethyl 6-{4-[3-(1,2,5-thiadiazol-3-yl)pyridin-2-yl]piperazin-1-yl}-2-azaspiro[3.4]octane-2-carboxylate]
14 | 74.7% | 8.93 | CCOC(=O)N1CC2(CCC(N3CCN(c4ncccc4-c4ccc(OC)nc4)CC3)C2)C1 (centres unmarked) [Example 38, ethyl 6-[4-(6′-methoxy-3,3′-bipyridin-2-yl)piperazin-1-yl]-2-azaspiro[3.4]octane-2-carboxylate]
15 | 55.5% | 8.82 | CCOC(=O)N1CC2(CC[C@@H](N3CCN(c4nccnc4N4CCC(OC)CC4)CC3)C2)C1 [Example 43, ethyl (6R)-6-{4-[3-(4-methoxypiperidin-1-yl)pyrazin-2-yl]piperazin-1-yl}-2-azaspiro[3.4]octane-2-carboxylate]
16 | 92.5% | 9.00 | CCOC(=O)N1CC2(CC[C@@H](N3CCN(c4ncccc4N4CC5(COC5)C4)CC3)C2)C1 [Example 44, ethyl (6R)-6-{4-[3-(2-oxa-6-azaspiro[3.3]hept-6-yl)pyridin-2-yl]piperazin-1-yl}-2-azaspiro[3.4]octane-2-carboxylate]
17 | 60.9% | 9.22 | CCOC(=O)N1CC2(CC[C@@H](N3CCN(c4ncccc4-c4cnn(CCCCC#N)c4)CC3)C2)C1 [Example 49, ethyl (6R)-6-(4-{3-[1-(4-cyanobutyl)-1H-pyrazol-4-yl]pyridin-2-yl}piperazin-1-yl)-2-azaspiro[3.4]octane-2-carboxylate]
18 | 89.4% | > 9.41 | CCOCCn1cc(-c2cccnc2N2CCN([C@@H]3CCC4(C3)CN(C(=O)OCC)C4)CC2)cn1 [Example 50, ethyl (6R)-6-(4-{3-[1-(2-ethoxyethyl)-1H-pyrazol-4-yl]pyridin-2-yl}piperazin-1-yl)-2-azaspiro[3.4]octane-2-carboxylate]
19 | 92% | 9.25 | CCOC(=O)N1CC2(CCC(N3CCN(c4ncccc4-c4ccc(NC(C)=O)cc4)CC3)C2)C1 (centres unmarked) [Example 52, ethyl 6-(4-(3-(4-acetamidophenyl)pyridin-2-yl)piperazin-1-yl)-2-azaspiro[3.4]octane-2-carboxylate]
